Reference: ChEMBL document CHEMBL1201862, “PubChem BioAssay data set” (2004)
The source made the active and inactive calls.

Legend:
Procathepsin L = Procathepsin L (Homo sapiens, UniProt P07711)
Aspartyl aminopeptidase = Aspartyl aminopeptidase (Plasmodium falciparum 3D7, UniProt Q8I2J3)
[1] = biological target: T1, Rac GTPase-activating protein 1 (Homo sapiens, UniProt Q9H0H5); test: blockers of MgcRacGAP-driven Rac1 GTP hydrolysis – biochemical, ADP Hunter fluorescence, primary and confirmatory, confirmation (AID 624330); format: functional
T1 sequence (Q9H0H5 whole entry): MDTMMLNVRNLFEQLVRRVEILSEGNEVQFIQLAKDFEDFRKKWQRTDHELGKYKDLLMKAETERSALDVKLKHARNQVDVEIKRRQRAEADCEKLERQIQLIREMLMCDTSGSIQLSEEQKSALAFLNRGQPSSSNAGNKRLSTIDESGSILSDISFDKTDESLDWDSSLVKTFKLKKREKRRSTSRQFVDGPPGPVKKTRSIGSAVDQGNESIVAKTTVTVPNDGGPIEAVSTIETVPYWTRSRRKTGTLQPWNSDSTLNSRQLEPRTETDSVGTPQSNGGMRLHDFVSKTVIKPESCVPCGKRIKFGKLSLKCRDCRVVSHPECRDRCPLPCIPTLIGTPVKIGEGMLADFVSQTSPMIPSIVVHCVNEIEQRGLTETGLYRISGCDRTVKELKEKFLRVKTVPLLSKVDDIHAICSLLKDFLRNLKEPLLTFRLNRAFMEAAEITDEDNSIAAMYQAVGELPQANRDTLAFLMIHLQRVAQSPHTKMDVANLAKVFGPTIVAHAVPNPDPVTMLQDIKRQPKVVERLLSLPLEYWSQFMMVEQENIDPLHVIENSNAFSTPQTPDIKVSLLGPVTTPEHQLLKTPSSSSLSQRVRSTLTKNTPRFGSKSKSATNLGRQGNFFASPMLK

[2] = biological target: T2, Alkaline phosphatase, tissue-nonspecific isozyme (Homo sapiens, UniProt P05186)
T2 sequence (P05186 whole entry): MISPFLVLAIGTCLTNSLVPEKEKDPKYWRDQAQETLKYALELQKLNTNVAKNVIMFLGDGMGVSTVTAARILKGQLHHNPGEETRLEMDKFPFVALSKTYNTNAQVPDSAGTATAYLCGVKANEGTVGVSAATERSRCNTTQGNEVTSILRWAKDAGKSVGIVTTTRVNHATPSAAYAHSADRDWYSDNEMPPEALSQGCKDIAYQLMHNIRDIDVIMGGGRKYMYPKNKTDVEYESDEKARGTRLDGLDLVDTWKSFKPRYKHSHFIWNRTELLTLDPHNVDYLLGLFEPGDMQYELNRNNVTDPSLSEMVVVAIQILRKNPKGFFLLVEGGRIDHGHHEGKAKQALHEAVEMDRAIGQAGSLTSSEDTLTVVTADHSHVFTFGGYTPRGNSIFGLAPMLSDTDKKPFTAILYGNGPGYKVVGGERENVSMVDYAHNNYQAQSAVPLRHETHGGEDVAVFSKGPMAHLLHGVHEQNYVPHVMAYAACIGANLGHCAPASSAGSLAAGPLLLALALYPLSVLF

[3] = biological target: Polyadenylate-binding protein 1 (Homo sapiens, UniProt P11940); test: blockers of PABP interaction with poly(A) – biochemical, fluorescence polarization, […] (AID 2014)
[4] = biological target: Eukaryotic translation initiation factor 4H (Homo sapiens, UniProt Q15056); test: eIF4H binding inhibition – biochemical, uHTS, fluorescence polarization, translation initiation inhibitor project, primary screen (AID 2012)
[5] = biological target: Acyl-homoserine lactone acylase PvdQ (Pseudomonas aeruginosa (strain LESB58), UniProt Q9I194); test: PvdQ acylase enzyme activity blockers – biochemical, fluorescence, plate reader and imaging, cherry-picks, dose response (AID 493231)
[6] = Luminescence Cell-Based Dose Response HTS to Identify Inhibitors of 5'UTR Stem-Loop Driven Prion Protein mRNA Translation in H4 Neuroglioblastoma Cells. [Related pubchem assays: 1827 (Project Summary), 1813 (Primary HTS)]; format: functional
Jurkat = test: blockers of NF-kB activation in T cells – Jurkat, luciferase reporter, luminescence, B- and T-cell, dose response (AID 489004); format: functional, cell-based; conditions: Homo sapiens;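 also: NF-kB luciferase reporter Jurkat cells stimulated with PMA plus ionomycin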
cells = format: functional, cell-based
[7] = HEK-293T viability loss, compound-treated – cell-based, uHTS hits, cytotoxicity control for B/T-cell NF-kB inhibitor project, dose response (AID 489019); format: functional;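 also: IC50 reflects cytotoxicity as loss of cell viability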
[8] = alpha-synuclein stem-loop translation blockers – luminescence, H4 neuroglioblastoma cells, dose confirmation, confirmation (AID 2454); format: functional, cell-based;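 also: H4 neuroglioblastoma cells carrying an alpha-synuclein 5'UTR luciferase reporter; potency for inhibition of the luciferase signal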
[9] = alpha-synuclein stem-loop luciferase translation blockers – H4 neuroglioma cells, luminescence, confirmation (AID 1988); format: functional, cell-based
[10] = luciferase reporter signal suppression in cells – H4 neuroglioma cells, luminescence, dose response (AID 1990); format: functional, cell-based
[11] = luciferase reporter signal reduction – luminescence, H4-C neuroglioblastoma cells, dose response (AID 2458); format: functional, cell-based;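 also: H4 neuroglioblastoma cells stably carrying a luciferase reporter gene fusion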
[12] = biological target: T3, Heat shock 70 kDa protein 1A (Homo sapiens, UniProt P0DMV8); test: small molecules displacing fluorescent ligand from Hsp70 – biochemical, fluorescence polarization, primary screen (AID 583)
[13] = biological target: T3, Heat shock 70 kDa protein 1A; test: small-molecule inhibition of Hsp70 – biochemical, TR-FRET (AID 786)
[14] = biological target: Heat shock protein HSP 90-alpha (Homo sapiens, UniProt P07900); format: functional, organism-based
[15] = cAMP pathway inhibition in counterscreen cell line – TR-FRET cAMP detection, counter-screen for MC4R biased antagonist project, dose response (AID 602305); format: functional, cell-based;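 also: U2OS cells stimulated with forskolin near its EC80 as the cAMP inducer; potency is for inhibition of forskolin-stimulated cAMP signaling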
[16] = biological target: Serine/threonine-protein phosphatase PP1-alpha catalytic subunit (Homo sapiens, UniProt P62136); test: inhibition of protein phosphatase 1 activity – biochemical, fluorescence, dose response (AID 2403);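 also: phosphatase turnover of OMFP into fluorescent 3-O-methylfluorescein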
INS1 = test: INS-1E survival protection against cytokine death – cell-based, luminescence, retest, dose response (AID 449756); format: functional; conditions: Rattus norvegicus;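 also: cell death triggered by IL-1 beta plus TNF-alpha plus IFN-gamma mixture; protective hits raise ATP signal compared with cytokine alone wells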
[17] = microbe, parasite or virus in culture; format: functional; conditions: Mycobacterium tuberculosis
Vero = test: cells; format: functional; conditions: Chlorocebus sabaeus
[18] = biological target: Serine/threonine-protein phosphatase (Homo sapiens, UniProt Q9BPW0); test: Counterscreen for inhibitors of PP1: fluorescence-based biochemical high throughput dose response assay to identify inhibitors of Protein Phosphatase 5 (PP5). [Related pubchem assays: 2034 (Summary (PP5 inhibitors)), 1987 (PP5 inhibitors in singlate), 2235 (PP1 inhibitors in singlate)]
Melanocortin receptor 4 = Melanocortin receptor 4 (Homo sapiens, UniProt P32245); test: inhibitors of MC4R cAMP signaling – cell-based, TR-FRET, biased antagonists, dose response (AID 602298); format: functional;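 also: antagonist potency against agonist-stimulated cAMP production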
Protein skinhead-1 = biological target: T4, Protein skinhead-1 (Caenorhabditis elegans, UniProt P34707); format: functional
T4 sequence (P34707 whole entry): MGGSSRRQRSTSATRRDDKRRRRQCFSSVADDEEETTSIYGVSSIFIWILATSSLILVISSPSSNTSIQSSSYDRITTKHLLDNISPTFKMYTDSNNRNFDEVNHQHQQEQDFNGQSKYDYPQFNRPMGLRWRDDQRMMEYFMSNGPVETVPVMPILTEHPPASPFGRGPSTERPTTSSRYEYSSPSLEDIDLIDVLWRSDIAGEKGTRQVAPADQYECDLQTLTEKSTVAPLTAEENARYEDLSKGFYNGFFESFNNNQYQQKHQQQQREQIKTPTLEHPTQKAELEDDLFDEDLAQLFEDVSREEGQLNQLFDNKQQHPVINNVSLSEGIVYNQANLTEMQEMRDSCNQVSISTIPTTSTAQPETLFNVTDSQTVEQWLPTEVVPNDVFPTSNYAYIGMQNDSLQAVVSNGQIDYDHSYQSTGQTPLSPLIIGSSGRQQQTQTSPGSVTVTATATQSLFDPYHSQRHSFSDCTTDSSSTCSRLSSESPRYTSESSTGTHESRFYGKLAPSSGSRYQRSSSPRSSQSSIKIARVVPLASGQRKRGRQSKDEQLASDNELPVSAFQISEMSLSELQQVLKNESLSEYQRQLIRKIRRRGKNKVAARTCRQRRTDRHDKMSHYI

[19] = test system: Streptococcus sp. 'group A'; test: Streptococcus pyogenes SK(-)GAS viability under kanamycin – luminescence, BacTiterGlo, confirmation, counter-screen for streptokinase expression inhibitor project, dose response (AID 1900); format: functional, organism-based
Streptococcus [20] = test: GAS UMAA2166 growth inhibition – luminescence, BacTiterGlo, counter-screen for streptokinase expression inhibitor project, dose response (AID 1915); format: functional, organism-based;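 also: potency for reduction of bacterial viability or growth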
Streptokinase A = biological target: T5, Streptokinase A (Streptococcus pyogenes serotype M1, UniProt P10520); test: viability-normalized secreted streptokinase activity reduction – plasminogen activation absorbance, OD405, dose response (AID 1914); format: functional, Streptococcus pyogenes M1 GAS;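 also: secreted streptokinase activity via plasminogen activation per viability signal from cell pellet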
T5 sequence (P10520 whole entry): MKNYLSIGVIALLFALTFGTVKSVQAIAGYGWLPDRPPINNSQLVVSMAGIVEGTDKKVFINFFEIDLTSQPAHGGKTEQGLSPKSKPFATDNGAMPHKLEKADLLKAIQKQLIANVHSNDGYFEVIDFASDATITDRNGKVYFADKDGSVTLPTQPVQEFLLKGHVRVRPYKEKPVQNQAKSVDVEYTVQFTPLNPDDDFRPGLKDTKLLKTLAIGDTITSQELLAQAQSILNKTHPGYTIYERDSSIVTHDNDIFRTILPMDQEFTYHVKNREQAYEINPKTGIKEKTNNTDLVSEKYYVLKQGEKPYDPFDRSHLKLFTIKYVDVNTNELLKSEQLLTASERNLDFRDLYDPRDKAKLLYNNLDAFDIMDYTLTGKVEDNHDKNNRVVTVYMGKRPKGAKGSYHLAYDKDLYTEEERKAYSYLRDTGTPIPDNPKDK

Streptococcus [21] = test: Luminescence Microorganism-Based Dose Response Follow up to Identify Compounds Cytotoxic to Streptococcus. [Related pubchem assays: 1677 (Project Summary), 1915, 1914, 1902 (Retest at Dose), 1900 (Counter Screen), 1662 (Primary HTS)]; format: functional, organism-based
[22] = biological target: T6, Neuropeptide Y receptor type 1 (Homo sapiens, UniProt P25929); test: Fluorescence-based dose response cell-based high-throughput screening assay for agonists of NPY-Y1. [Related pubchem assays: 1697 (Screening assay (NPY-Y1 agonists).), 1359 (Screening assay (NPY-Y2 potentiators or agonists).), 1304 (Screening assay (NPY-Y1 potentiators or agonists).), 1704 (Screening assay (CNGC inhibitors).), 1791 (Summary AID.)]; format: functional
T6 sequence (P25929 whole entry): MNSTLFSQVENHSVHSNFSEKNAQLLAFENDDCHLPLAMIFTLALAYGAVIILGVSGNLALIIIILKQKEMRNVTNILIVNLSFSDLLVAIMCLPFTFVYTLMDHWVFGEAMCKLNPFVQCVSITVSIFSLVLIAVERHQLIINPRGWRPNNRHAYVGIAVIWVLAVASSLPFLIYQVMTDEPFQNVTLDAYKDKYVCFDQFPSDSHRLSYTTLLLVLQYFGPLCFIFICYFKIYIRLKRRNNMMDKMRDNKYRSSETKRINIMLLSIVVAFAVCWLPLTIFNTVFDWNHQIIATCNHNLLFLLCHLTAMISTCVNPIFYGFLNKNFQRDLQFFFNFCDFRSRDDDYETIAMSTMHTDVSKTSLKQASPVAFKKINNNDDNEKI

[23] = biological target: T7, Neuropeptide Y receptor type 2 (Homo sapiens, UniProt P49146); test: Fluorescence-based counterscreen for agonists of NPY-Y1: cell-based high-throughput dose response assay for agonists of NPY-Y2.; format: functional
T7 sequence (P49146 whole entry): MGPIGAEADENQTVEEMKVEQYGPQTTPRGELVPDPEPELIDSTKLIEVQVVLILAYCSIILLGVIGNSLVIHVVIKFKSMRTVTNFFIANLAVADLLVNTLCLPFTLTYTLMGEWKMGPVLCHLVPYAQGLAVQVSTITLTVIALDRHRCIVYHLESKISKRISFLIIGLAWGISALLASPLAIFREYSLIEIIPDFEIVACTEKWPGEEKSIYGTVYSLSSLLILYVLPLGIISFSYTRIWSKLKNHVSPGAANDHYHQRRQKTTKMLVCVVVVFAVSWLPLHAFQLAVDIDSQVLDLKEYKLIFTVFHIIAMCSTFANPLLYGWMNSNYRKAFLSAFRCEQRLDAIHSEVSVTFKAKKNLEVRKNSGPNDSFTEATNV

HEK293 = test: Fluorescence-based counterscreen for potentiators or agonists of NPY-Y1: cell-based high-throughput dose response assay for inhibitors of cyclic nucleotide gated ion channel (CNGC) activity. In this assay, the parental HEK293 cell line transfected with a cyclic-nucleotide gated ion channel (CNGC)-based cAMP sensor is used to measure inhibition of isoproterenol-induced CNGC …; format: functional; conditions: Homo sapiens

T3 sequence (P0DMV8 whole entry): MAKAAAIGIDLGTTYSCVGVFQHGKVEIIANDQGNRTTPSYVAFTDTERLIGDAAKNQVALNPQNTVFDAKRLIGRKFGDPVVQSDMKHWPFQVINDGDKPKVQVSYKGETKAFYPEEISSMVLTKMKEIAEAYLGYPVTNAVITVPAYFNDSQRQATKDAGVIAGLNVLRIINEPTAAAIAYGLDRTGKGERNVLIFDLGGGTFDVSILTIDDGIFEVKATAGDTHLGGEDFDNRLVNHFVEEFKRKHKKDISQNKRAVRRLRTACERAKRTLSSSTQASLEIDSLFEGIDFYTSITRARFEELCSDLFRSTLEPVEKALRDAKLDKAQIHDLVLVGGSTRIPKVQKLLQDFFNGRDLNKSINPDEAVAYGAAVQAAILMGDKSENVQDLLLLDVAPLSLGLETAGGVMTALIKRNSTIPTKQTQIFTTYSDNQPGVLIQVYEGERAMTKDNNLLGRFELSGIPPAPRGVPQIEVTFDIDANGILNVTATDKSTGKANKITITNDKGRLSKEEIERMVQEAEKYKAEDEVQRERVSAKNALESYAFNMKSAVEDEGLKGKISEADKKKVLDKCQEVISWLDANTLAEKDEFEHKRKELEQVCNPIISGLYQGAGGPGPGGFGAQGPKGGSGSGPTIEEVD
Acyl-homoserine lactone acylase PvdQ, sequence (Q9I194 24-193 limits assumed): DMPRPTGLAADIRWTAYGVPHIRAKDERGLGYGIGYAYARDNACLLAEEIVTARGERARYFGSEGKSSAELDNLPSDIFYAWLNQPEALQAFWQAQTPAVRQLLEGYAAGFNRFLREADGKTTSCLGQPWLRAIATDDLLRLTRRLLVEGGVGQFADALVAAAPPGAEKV
Acyl-homoserine lactone acylase PvdQ, sequence (Q9I194 217-762 limits assumed): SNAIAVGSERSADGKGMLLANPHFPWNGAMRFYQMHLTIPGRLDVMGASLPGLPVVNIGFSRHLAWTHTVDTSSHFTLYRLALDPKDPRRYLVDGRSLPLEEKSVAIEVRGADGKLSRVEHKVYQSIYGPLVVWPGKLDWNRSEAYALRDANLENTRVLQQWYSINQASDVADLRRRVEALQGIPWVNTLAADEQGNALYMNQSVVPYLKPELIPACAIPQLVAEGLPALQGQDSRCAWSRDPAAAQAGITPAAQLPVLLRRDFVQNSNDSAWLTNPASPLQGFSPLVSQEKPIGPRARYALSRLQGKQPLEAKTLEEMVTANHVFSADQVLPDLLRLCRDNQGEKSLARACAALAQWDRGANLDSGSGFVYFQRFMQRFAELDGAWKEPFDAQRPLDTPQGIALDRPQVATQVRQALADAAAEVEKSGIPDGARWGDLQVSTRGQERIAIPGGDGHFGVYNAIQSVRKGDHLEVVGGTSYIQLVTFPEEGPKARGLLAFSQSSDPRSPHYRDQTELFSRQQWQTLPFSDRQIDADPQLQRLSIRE
Aspartyl aminopeptidase, sequence (Q8I2J3 whole entry): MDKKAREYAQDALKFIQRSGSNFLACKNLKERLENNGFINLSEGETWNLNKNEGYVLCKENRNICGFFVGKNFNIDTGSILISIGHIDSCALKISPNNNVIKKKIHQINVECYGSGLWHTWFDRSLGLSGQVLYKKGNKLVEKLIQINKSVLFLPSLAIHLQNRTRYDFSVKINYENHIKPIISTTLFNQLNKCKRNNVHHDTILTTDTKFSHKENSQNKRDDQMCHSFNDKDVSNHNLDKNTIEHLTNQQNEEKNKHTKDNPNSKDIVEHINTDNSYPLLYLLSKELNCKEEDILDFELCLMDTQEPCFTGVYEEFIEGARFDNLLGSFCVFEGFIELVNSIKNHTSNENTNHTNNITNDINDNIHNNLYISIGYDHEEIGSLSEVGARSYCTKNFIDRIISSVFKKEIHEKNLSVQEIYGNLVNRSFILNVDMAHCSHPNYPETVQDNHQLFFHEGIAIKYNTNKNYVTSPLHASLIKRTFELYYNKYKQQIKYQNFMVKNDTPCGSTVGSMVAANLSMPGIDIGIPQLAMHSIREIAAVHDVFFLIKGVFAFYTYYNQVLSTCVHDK
Melanocortin receptor 4, sequence (P32245 whole entry): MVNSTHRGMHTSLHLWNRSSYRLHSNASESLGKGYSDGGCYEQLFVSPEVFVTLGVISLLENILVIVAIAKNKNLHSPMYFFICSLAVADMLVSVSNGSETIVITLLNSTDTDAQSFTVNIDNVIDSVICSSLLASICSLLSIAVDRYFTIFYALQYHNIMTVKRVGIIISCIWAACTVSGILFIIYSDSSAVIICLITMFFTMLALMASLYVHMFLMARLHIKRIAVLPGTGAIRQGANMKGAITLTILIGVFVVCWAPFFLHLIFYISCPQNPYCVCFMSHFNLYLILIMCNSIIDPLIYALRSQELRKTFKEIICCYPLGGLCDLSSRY
Serine/threonine-protein phosphatase, sequence (Q9BPW0 whole entry): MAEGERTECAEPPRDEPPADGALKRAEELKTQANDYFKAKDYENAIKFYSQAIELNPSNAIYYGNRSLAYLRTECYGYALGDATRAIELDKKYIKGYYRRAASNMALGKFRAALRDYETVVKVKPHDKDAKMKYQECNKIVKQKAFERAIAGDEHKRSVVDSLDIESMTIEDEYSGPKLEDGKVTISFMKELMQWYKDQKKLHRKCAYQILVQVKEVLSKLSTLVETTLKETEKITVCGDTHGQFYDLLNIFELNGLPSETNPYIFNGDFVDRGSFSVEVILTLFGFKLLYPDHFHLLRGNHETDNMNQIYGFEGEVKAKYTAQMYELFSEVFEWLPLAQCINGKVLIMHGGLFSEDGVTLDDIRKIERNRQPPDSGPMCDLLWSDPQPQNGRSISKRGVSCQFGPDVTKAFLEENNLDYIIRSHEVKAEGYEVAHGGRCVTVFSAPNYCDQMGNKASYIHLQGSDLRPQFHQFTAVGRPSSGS
Serine/threonine-protein phosphatase PP1-alpha catalytic subunit, sequence (P62136 whole entry): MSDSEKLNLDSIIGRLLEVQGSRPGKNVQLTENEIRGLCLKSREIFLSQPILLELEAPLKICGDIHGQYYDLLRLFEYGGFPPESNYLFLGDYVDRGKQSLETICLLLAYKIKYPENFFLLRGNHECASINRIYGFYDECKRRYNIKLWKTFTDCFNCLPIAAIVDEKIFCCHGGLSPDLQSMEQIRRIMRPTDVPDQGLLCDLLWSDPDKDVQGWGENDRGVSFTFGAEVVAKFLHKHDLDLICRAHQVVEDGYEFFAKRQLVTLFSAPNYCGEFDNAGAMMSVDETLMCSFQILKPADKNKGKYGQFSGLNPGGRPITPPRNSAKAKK
Polyadenylate-binding protein 1, sequence (P11940 whole entry): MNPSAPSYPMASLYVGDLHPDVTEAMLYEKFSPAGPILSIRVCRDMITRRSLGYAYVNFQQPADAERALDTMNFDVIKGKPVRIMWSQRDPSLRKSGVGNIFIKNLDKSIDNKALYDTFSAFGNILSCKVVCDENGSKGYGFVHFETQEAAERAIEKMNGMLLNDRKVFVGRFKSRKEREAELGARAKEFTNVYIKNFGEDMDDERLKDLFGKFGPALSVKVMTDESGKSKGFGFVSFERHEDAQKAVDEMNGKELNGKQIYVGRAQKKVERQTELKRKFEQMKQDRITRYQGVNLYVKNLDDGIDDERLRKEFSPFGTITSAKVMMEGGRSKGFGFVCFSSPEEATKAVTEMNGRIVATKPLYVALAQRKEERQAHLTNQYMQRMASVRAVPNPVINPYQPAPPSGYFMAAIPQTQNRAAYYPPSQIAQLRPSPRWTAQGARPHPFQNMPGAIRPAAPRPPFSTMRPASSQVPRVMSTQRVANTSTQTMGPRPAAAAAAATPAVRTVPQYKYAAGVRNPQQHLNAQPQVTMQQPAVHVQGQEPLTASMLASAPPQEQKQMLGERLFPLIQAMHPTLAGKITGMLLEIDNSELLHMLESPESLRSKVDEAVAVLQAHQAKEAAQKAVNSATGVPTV
Procathepsin L, sequence (P07711 whole entry): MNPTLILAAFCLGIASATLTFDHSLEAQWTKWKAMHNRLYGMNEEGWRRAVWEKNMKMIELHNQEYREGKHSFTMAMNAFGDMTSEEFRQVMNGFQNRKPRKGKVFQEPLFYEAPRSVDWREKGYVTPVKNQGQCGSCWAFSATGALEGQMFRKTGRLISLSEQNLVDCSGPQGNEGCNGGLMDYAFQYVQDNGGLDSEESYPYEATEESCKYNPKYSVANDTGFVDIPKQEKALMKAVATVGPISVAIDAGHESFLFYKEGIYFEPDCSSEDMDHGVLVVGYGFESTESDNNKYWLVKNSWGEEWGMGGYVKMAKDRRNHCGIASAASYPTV

## Cc1cc(O)nc2c(N=Nc3ccc(O)cc3)c(N)nn12
Procathepsin L
  IC50: > 59.6 µM (not active)
Aspartyl aminopeptidase
  IC50: 1.51 µM (active)
[1]
  IC50: 12.1 µM (active)

## CCOC(=O)CSc1nc2ccccc2c(=O)n1CCC(=O)NCCc1ccc(OC)c(OC)c1
[2]
  EC50: > 100 µM (not active)

## Cc1ccccc1/C=C/c1cccc[n+]1C
[3]
  IC50: 7.43 µM (active)
[4]
  IC50: > 100 µM (inactive)

## N#Cc1cc([N+](=O)[O-])ccc1N1CCCC1
[5]
  AC50: 3.79 µM (active)

## CC1CCc2c(sc(NC(=O)CSc3nc[nH]n3)c2C#N)C1 (stereo not drawn)
[6]
  EC50: < 0.1 µM (active)
Jurkat
  IC50: 0.52 µM (active)
cells
  EC50: 0.337 µM (active)
[7]
  IC50: > 80 µM (inactive)
[8]
  EC50: 0.323 µM (active)
[9]
  EC50: < 0.1 µM (active)
[10]
  EC50: < 0.1 µM (active)
[11]
  EC50: 0.232 µM (active)

## Cc1ccnc2c(N3C(=O)C4C5C=CC(C5)C4(C)C3=O)cccc12 (stereo not drawn)
[12]
  IC50: > 100 µM (not active)
[13]
  IC50: > 100 µM (not active)

## CC1=NOC(=O)/C1=C/c1ccc(-c2ccc(Cl)cc2)o1
[14]
  AC50: 2.08 µM (active)
[15]
  IC50: 13.4 µM (inactive)
[16]
  IC50: 6.86 µM (active)
INS1
  AC50: 6.76 µM (active)
[17]
  CC50: > 40 µM (active)
Vero
  CC50: > 25 µM (active)
[18]
  IC50: > 67 µM (not active)
Melanocortin receptor 4
  IC50: 8.05 µM (active)
Protein skinhead-1
  IC50: 62.2 µM (inactive)

## O=[N+]([O-])c1ccc(Nc2nc(NCCO)nc(N3CCCC3)n2)cc1
[19]
  EC50: 6.68 µM (active)
Streptococcus [20]
  EC50: > 150 µM (not active)
Streptokinase A
  EC50: 7.48 µM (active)
Streptococcus [21]
  EC50: 54.3 µM (active)

## OC(CNC1Cc2ccccc2C1)COc1ccc(Cl)cc1 (stereo not drawn)
[22]
  EC50: 11.6 µM (not active)
[23]
  EC50: > 35.4 µM (not active)
HEK293
  IC50: > 3.94 µM (active)
